≈ marks a conversion by molar mass, not a printed value. Like-named read-outs stand apart in the source and are kept apart here.
Columns and labels:
[1] = system: Staphylococcus aureus 209P JC-1; assay: antibacterial spectrum, minimal inhibitory concentration; assay type: cell-based
Bacillus anthracis = assay: microbe, parasite or virus in culture; assay type: cell-based; details: read-out: Minimal inhibitory concentration
Bacillus cereus = assay: antibacterial spectrum, minimal inhibitory concentration; assay type: cell-based
[2] = system: Bacillus subtilis ATCC 6633; assay: as above; assay type: cell-based; details: ATCC6633
Streptococcus faecalis = assay: as above; assay type: cell-based; details: Enterococcus faecalis
[3] = system: Escherichia coli NIHJ JC-2; assay: as above; assay type: cell-based
[4] = system: Escherichia coli K-12 ML1410; assay: as above; assay type: cell-based; details: K12ML1410
Escherichia coli R-82 = assay: as above; assay type: cell-based; details: R82, resistance mechanism APH(3')II
Escherichia coli R-101 = assay: as above; assay type: cell-based
Escherichia coli R-176 = assay: as above; assay type: cell-based; details: R176, resistance mechanism AAC(3)II
[5] = system: Escherichia coli JR88/W677; assay: as above; assay type: cell-based; details: resistance mechanism AAC(3)I
Proteus vulgaris OX-19 = assay: as above; assay type: cell-based
[6] = system: Klebsiella pneumoniae PCI 602; assay: as above; assay type: cell-based
[7] = system: Pseudomonas aeruginosa No. 12; assay: as above; assay type: cell-based
[8] = system: Pseudomonas aeruginosa No. 99; assay: as above; assay type: cell-based
[9] = system: Pseudomonas aeruginosa TI-13; assay: as above; assay type: cell-based
Excerpt: | Resistance mechanism: ^a APH(3')I,

[10] = system: Pseudomonas aeruginosa A3; assay: as above; assay type: cell-based
[11] = system: Pseudomonas aeruginosa K-11; assay: as above; assay type: cell-based
[12] = system: Pseudomonas aeruginosa TK-157; assay: as above; assay type: cell-based
[13] = system: Pseudomonas aeruginosa GN315; assay: as above; assay type: cell-based
[14] = system: Proteus inconstans GN1554; assay: as above; assay type: cell-based; details: Providencia alcalifaciens
Serratia marcescens = assay: as above; assay type: cell-based; details: read-out: Minimal inhibitory concentration
Escherichia coli R-81 = assay: as above; details: R81, read-out: Minimal inhibitory concentration
[15] = Escherichia coli, NIHJJC2, read-out: Minimal inhibitory concentration
[16] = Escherichia coli, R101, read-out: Minimal inhibitory concentration
[17] = Proteus vulgaris, OX19, read-out: Minimal inhibitory concentration
[18] = PCI602, Klebsiella pneumoniae PCI 602, read-out: Minimal inhibitory concentration
[19] = Pseudomonas aeruginosa, NO.99, read-out: Minimal inhibitory concentration
[20] = Pseudomonas aeruginosa, TI13, read-out: Minimal inhibitory concentration
[21] = Pseudomonas aeruginosa A3, read-out: Minimal inhibitory concentration
[22] = Pseudomonas aeruginosa, K11, read-out: Minimal inhibitory concentration
[23] = TK157, Pseudomonas aeruginosa TK-157, resistance mechanism APH(3')II, read-out: Minimal inhibitory concentration
[24] = Pseudomonas aeruginosa, GN315, read-out: Minimal inhibitory concentration
[25] = GN1554, read-out: Minimal inhibitory concentration
[26] = Pseudomonas aeruginosa, A3, read-out: Minimal inhibitory concentration
[27] = Pseudomonas aeruginosa, TK157, read-out: Minimal inhibitory concentration
[28] = NIHJJC2, Escherichia coli NIHJ JC-2, read-out: Minimal inhibitory concentration
[29] = OX19, Proteus vulgaris OX-19, read-out: Minimal inhibitory concentration
[30] = Pseudomonas aeruginosa No. 99, resistance mechanism AAC(3)I, read-out: Minimal inhibitory concentration
[31] = TI13, Pseudomonas aeruginosa TI-13, resistance mechanism APH(3')I, read-out: Minimal inhibitory concentration
[32] = K11, Pseudomonas aeruginosa K-11, read-out: Minimal inhibitory concentration
[33] = Pseudomonas aeruginosa GN315, resistance mechanism AAC(6')IV, read-out: Minimal inhibitory concentration
[34] = R101, Escherichia coli R-101, resistance mechanism AAD(2"), read-out: Minimal inhibitory concentration
[35] = Klebsiella pneumoniae, PCI602, read-out: Minimal inhibitory concentration
[36] = Proteus inconstans GN1554, resistance mechanism AAC(2'), read-out: Minimal inhibitory concentration

Structure (SMILES)	MIC [1] [µg/mL]	MIC (Bacillus anthracis) [µg/mL]	MIC (Bacillus cereus) [µg/mL]	MIC [2] [µg/mL]	MIC (Streptococcus faecalis) [µg/mL]	MIC [4] [µg/mL]	MIC (Escherichia coli R-82) [µg/mL]	MIC (Escherichia coli R-101; [16]) [µg/mL]	MIC (Escherichia coli R-176) [µg/mL]	MIC [5] [µg/mL]	MIC [6, 18] [µg/mL]	MIC [7] [µg/mL]	MIC [12, 23] [µg/mL]	MIC [14, 25] [µg/mL]	MIC (Serratia marcescens) [µg/mL]	MIC (Escherichia coli R-81) [µg/mL]	MIC [10, 26] [µg/mL]	MIC (Proteus vulgaris OX-19; [29]) [µg/mL]	MIC [8, 30] [µg/mL]	MIC [11, 32] [µg/mL]	also measured
CC(N)C1CCC(N)C(OC2C(N)CC(OCC(O)CN)C(N(C)C(=O)CN)C2O)O1 (stereo not drawn) [A, 5-O-(3-amino-2-hydroxypropyl)-5-de-O-methyl-KA-6606 I]	0.39 (≈ 0.869 µM)	≤ 0.1	0.78 (≈ 1.74 µM)	0.2 (≈ 0.446 µM)	50 (≈ 111 µM)	3.13 (≈ 6.98 µM)	3.13 (≈ 6.98 µM)	3.13 (≈ 6.98 µM)	6.25 (≈ 13.9 µM)	6.25 (≈ 13.9 µM)	1.56 (≈ 3.48 µM)	0.39 (≈ 0.869 µM)	1.56 (≈ 3.48 µM)	6.25 (≈ 13.9 µM)	1.56 (≈ 3.48 µM)	3.13 (≈ 6.98 µM)	–	–	–	–	MIC [3, 15]: 3.13 µg/mL (≈ 6.98 µM); MIC (Proteus vulgaris OX-19; [17]): 3.13 µg/mL (≈ 6.98 µM); MIC [8, 19]: 6.25 µg/mL (≈ 13.9 µM); MIC [9, 20]: 3.13 µg/mL (≈ 6.98 µM); MIC [10, 21]: 1.56 µg/mL (≈ 3.48 µM); MIC [11, 22]: 3.13 µg/mL (≈ 6.98 µM); MIC [13, 24]: 3.13 µg/mL (≈ 6.98 µM)
CC(N)C1CCC(N)C(OC2C(N)CC(OCC(O)CCN)C(N(C)C(=O)CN)C2O)O1 (stereo not drawn) [B, 5-O-(4-amino-2-hydroxybutyl)-5-de-O-methyl-KA-6606 I]	0.39 (≈ 0.843 µM)	≤ 0.1	1.56 (≈ 3.37 µM)	≤ 0.1	50 (≈ 108 µM)	3.13 (≈ 6.77 µM)	3.13 (≈ 6.77 µM)	3.13 (≈ 6.77 µM)	6.25 (≈ 13.5 µM)	3.13 (≈ 6.77 µM)	1.56 (≈ 3.37 µM)	0.39 (≈ 0.843 µM)	–	6.25 (≈ 13.5 µM)	1.56 (≈ 3.37 µM)	3.13 (≈ 6.77 µM)	3.13 (≈ 6.77 µM)	–	–	–	MIC [3, 15]: 3.13 µg/mL (≈ 6.77 µM); MIC (Proteus vulgaris OX-19; [17]): 3.13 µg/mL (≈ 6.77 µM); MIC [8, 19]: 6.25 µg/mL (≈ 13.5 µM); MIC [9, 20]: 3.13 µg/mL (≈ 6.77 µM); MIC [11, 22]: 6.25 µg/mL (≈ 13.5 µM); MIC [12, 27]: 3.13 µg/mL (≈ 6.77 µM); MIC [13, 24]: 6.25 µg/mL (≈ 13.5 µM)
CC(N)C1CCC(N)C(OC2C(N)CC(OCC(O)CO)C(N(C)C(=O)CN)C2O)O1 (stereo not drawn) [C, 5-de-O-methyl-5-O-(2,3-dihydroxypropyl)-KA-6606 I]	0.39 (≈ 0.868 µM)	≤ 0.1	3.13 (≈ 6.96 µM)	0.2 (≈ 0.445 µM)	100 (≈ 222 µM)	6.25 (≈ 13.9 µM)	6.25 (≈ 13.9 µM)	6.25 (≈ 13.9 µM)	6.25 (≈ 13.9 µM)	6.25 (≈ 13.9 µM)	0.78 (≈ 1.74 µM)	1.56 (≈ 3.47 µM)	12.5 (≈ 27.8 µM)	6.25 (≈ 13.9 µM)	3.13 (≈ 6.96 µM)	6.25 (≈ 13.9 µM)	6.25 (≈ 13.9 µM)	3.13 (≈ 6.96 µM)	25 (≈ 55.6 µM)	12.5 (≈ 27.8 µM)	MIC [3, 28]: 3.13 µg/mL (≈ 6.96 µM); MIC [9, 31]: 12.5 µg/mL (≈ 27.8 µM); MIC [13, 33]: 12.5 µg/mL (≈ 27.8 µM)
CC(N)C1CCC(N)C(OC2C(N)CC(O[C@@H]3O[C@H](CO)[C@@H](O)[C@H](O)[C@H]3O)C(N(C)C(=O)CN)C2O)O1 (stereo partly drawn) [D, 5-de-O-methyl-5-O-(β-D-glucopyranosyl)-KA-6606 I]	0.78 (≈ 1.45 µM)	0.2 (≈ 0.372 µM)	6.25 (≈ 11.6 µM)	0.39 (≈ 0.725 µM)	> 100	12.5 (≈ 23.3 µM)	12.5 (≈ 23.3 µM)	–	3.13 (≈ 5.82 µM)	3.13 (≈ 5.82 µM)	–	0.78 (≈ 1.45 µM)	6.25 (≈ 11.6 µM)	–	3.13 (≈ 5.82 µM)	12.5 (≈ 23.3 µM)	12.5 (≈ 23.3 µM)	6.25 (≈ 11.6 µM)	25 (≈ 46.5 µM)	25 (≈ 46.5 µM)	MIC [3, 28]: 6.25 µg/mL (≈ 11.6 µM); MIC (Escherichia coli R-101; [34]): 6.25 µg/mL (≈ 11.6 µM); MIC [6, 35]: 3.13 µg/mL (≈ 5.82 µM); MIC [9, 20]: 12.5 µg/mL (≈ 23.3 µM); MIC [13, 33]: 25 µg/mL (≈ 46.5 µM); MIC [14, 36]: 25 µg/mL (≈ 46.5 µM)
CC(N)C1CCC(N)C(OC2C(N)CC(O[C@H]3O[C@H](CO)[C@@H](O)[C@H](N)[C@H]3O)C(N(C)C(=O)CN)C2O)O1 (stereo partly drawn) [E, 5-O-(3-amino-3-deoxy-α-D-glucopyranosyl)-5-de-O-methyl-KA-6606 I]	0.39 (≈ 0.727 µM)	0.2 (≈ 0.373 µM)	0.78 (≈ 1.45 µM)	0.2 (≈ 0.373 µM)	50 (≈ 93.2 µM)	6.25 (≈ 11.6 µM)	6.25 (≈ 11.6 µM)	–	6.25 (≈ 11.6 µM)	1.56 (≈ 2.91 µM)	–	0.39 (≈ 0.727 µM)	–	6.25 (≈ 11.6 µM)	1.56 (≈ 2.91 µM)	6.25 (≈ 11.6 µM)	6.25 (≈ 11.6 µM)	3.13 (≈ 5.83 µM)	12.5 (≈ 23.3 µM)	3.13 (≈ 5.83 µM)	MIC [3, 28]: 3.13 µg/mL (≈ 5.83 µM); MIC (Escherichia coli R-101; [34]): 3.13 µg/mL (≈ 5.83 µM); MIC [6, 35]: 1.56 µg/mL (≈ 2.91 µM); MIC [9, 31]: 3.13 µg/mL (≈ 5.83 µM); MIC [12, 27]: 1.56 µg/mL (≈ 2.91 µM); MIC [13, 24]: 6.25 µg/mL (≈ 11.6 µM)
COC1CC(N)C(OC2OC(C(C)N)CCC2N)C(O)C1N(C)C(=O)CN (stereo not drawn) [KA-6606 I, reference compound]	0.39 (≈ 1 µM)	0.2 (≈ 0.513 µM)	1.56 (≈ 4.01 µM)	0.2 (≈ 0.513 µM)	25 (≈ 64.2 µM)	3.13 (≈ 8.04 µM)	3.13 (≈ 8.04 µM)	3.13 (≈ 8.04 µM)	3.13 (≈ 8.04 µM)	> 100	1.56 (≈ 4.01 µM)	0.39 (≈ 1 µM)	6.25 (≈ 16 µM)	–	3.13 (≈ 8.04 µM)	3.13 (≈ 8.04 µM)	–	1.56 (≈ 4.01 µM)	> 100	12.5 (≈ 32.1 µM)	MIC [3, 15]: 3.13 µg/mL (≈ 8.04 µM); MIC [9, 31]: 6.25 µg/mL (≈ 16 µM); MIC [10, 21]: 6.25 µg/mL (≈ 16 µM); MIC [13, 33]: 12.5 µg/mL (≈ 32.1 µM); MIC [14, 36]: 6.25 µg/mL (≈ 16 µM)
